Measured values: patent US20240043860A1, “NOVEL HYDROXYPHENYLPYRUVATE DIOXYGENASE POLYPEPTIDES AND METHODS OF USE THEREOF” (Syngenta Crop Protection AG, priority 2020, published 2024)
Where “and” joins values, the source holds several entries; their conditions need not be identical. Identical values can stand only once. Like-named read-outs stand apart in the source and are kept apart here.

Assays:
[1] = system: transgenic tobacco plants expressing mutant HPPD SEQ ID NO: 122; test: spray test, herbicidal damage scoring; format: in vivo; conditions: 7 days after treatment, 100=complete death, 0=no damage, one value per event
Protocol: DNA sequences that encode these polypeptides (optimized for tobacco or, optionally, codon optimized according to a target crop such as soybean) were prepared synthetically. Each sequence was designed to include a 5′ fusion with TMV omega 5′ leader sequence such that they are flanked at the 5′ end with XhoI and at the 3′ end with KpnI to facilitate direct cloning into a suitable binary vector for Agrobacterium-based plant transformation.
For example, a master plate of Agrobacterium tumefaciens containing the HPPD expressing the binary vector is used to inoculate 10 ml LB (L broth) containing 100 mg/l Rifampicin plus 50 mg/l Kanamycin using a single bacterial colony. This is incubated overnight at 28° C. shaking at 200 rpm. This entire overnight culture is used to inoculate a 50 ml volume of LB containing the same antibiotics. Again this is cultured overnight at 28° C. shaking at 200 rpm. The Agrobacterium cells are pelleted by centrifuging at 3000 rpm for 15 minutes and then resuspended in MS (Murashige and Skoog) medium containing 30 g/l sucrose, pH 5.9 to an OD […]=0.6. This suspension is dispensed in 25 ml aliquots into petri dishes.
(§1) Once rooted, plantlets are transferred from agar and potted into 50% peat, 50% John Innes Soil No. 3 or, for example, MetroMix® 380 soil (Sun Gro Horticulture, Bellevue, WA) with slow-release fertilizer in 3 inch round or 4 inch square pots and left regularly watered to establish for 8-12d in the glass house. Glass house conditions are about 24-27° C. day; 18-21° C. night and approximately a 14h (or longer in UK summer) photoperiod.
(§2) About 20-30 TO events are produced for a number of HPPD variant genes.
Single copy events amongst the Ti plant lines are identified by their 3:1 segregation ratio (with respect to kanamycin and/or herbicide) and by quantitative RT-PCR. Seed from the thus selected Ti tobacco (var. Samsun) lines are sown in 3 inch diameter pots containing 50% peat and 50% John Innes Soil No. 3. […] HPPD expression levels were monitored by Western analysis.
(§3) Tables 4.1-4.9 show the herbicidal damage scoring on transgenic tobacco plants 7 days after treatment. A score of 100=complete death and 0=no damage observed.

[2] = system: HPPD variant APESV V162 (SEQ ID NO: 123); test: coupled HGO assay; format: biochemical, Apera spica-venti
Protocol: DNA sequences (SEQ ID NOs: 65-118, 128, 130, 131, and 133), synthesized for expression in E. coli, by GeneWiz (USA) to encode HPPD variants (SEQ ID NOs: 5-58, 122, 124, 125 and 127) derived from either Avena sativa (SEQ ID NOs: 122, 124), Alopecurus myosuroides (SEQ ID NO: 126) or Apera spica-venti (SEQ ID NOs: 123, 125) were transformed into E coli BL21 (DE3) (New England Biolabs) and grown in 0.5 ml Terrific broth +50 ug/ml Kanamycin media in a 96-deepwell block overnight (37° C., 900rpm). 25 ul of the overnight cultures were inoculated into fresh 96-deepwell block containing 1 ml Formedium Autoinduction Media (AIM). The AIM cultures were grown for 3h at 37° C. (900rpm) and then transferred to 20° C. overnight (900rpm) to allow protein expression. The overnight cultures were centrifuged and 500 ul of Cellytic B (Sigma Aldrich) was added to resuspend the cell pellets. The coupled HGO assay (Siehl et al, 2014) is used to generate IC50 values for the HPPD variants of interest.
(§4) E. coli BL21 (DE3) cells were transformed with a pET24a vector containing a C-terminally his-tagged Arabidopsis HGO gene, grown and induced overnight as described for the HPPD variants above. The cell pellet was resuspended in phosphate buffered saline at pH 7.4 containing 10% Glycerol, 1mm Tris[2-carboxyethyl] phosphine-HCl (TCEP) plus 30 mM Imidazole and lysed using lysozyme/benzonase. The extract was clarified by low speed centrifugation and purified in the same buffer down a 1 ml His Gravitrap column. The bound HGO was eluted in 0.25M imidazole and the fractions pooled and beaded into liquid nitrogen. All procedures apart from the centrifugation and beading steps were carried out under a nitrogen atmosphere.
(§5) The coupled HGO assay is carried out by adding 10 ul of HPPD extract to a 96-well plate and then adding 40 ul of reaction buffer (50 mM Bis Tris Propane, pH7.0, 25 mM sodium-L-ascorbate, 400μM mercaptoethanol, 50 μM Fe(II)SO4). The plates are left to incubate for 5 minutes on ice. […] 200 ul of HPP/HGO (197 μM hydroxyphenylpyruvic acid, 16 μl/ml Homogentisic Acid Oxidase in reaction buffer as described above) buffer is then added to the well and the reaction is regularly monitored (e.g. every 30 seconds-5 minutes) for absorbance at 330 nm for a given time period (e.g., for between 15-60 minutes). The data can then be used to calculate the IC50 value for each HPPD variant of interest.

wild-type tobacco plants = test: spray test, herbicidal damage scoring; format: in vivo; conditions: Table 4.1, 7 days after treatment, 100=complete death, 0=no damage, one value per plant/event
Protocol: as §1, §2, §3

[3] = molecular target: HPPD variant AVESA V201 (SEQ ID NO: 8) (Avena sativa, UniProt A0ACD5V6K6, A327R/G411A/I340E/L359M/V218I/V260A); format: biochemical; conditions: AVESA V201, SEQ ID NO: 8
HPPD variant AVESA V201 (SEQ ID NO: 8), sequence (A0ACD5V6K6 entry or part of it V218I/V260A/A327R/I340E/L359M/G411A): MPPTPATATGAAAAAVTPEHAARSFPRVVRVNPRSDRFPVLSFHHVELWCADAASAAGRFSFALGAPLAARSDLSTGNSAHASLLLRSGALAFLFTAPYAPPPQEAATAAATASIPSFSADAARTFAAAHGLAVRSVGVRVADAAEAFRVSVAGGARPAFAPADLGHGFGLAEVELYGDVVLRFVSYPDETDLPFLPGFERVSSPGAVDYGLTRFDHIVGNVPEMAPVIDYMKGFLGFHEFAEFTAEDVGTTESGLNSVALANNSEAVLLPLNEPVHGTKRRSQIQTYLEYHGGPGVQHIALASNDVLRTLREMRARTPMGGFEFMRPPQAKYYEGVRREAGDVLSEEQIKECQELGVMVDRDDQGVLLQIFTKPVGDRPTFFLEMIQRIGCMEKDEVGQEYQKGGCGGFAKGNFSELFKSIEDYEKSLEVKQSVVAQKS
Protocol: (§6) 25 ul of the overnight cultures were inoculated into fresh 96-deepwell block containing 1 ml Formedium Autoinduction Media (AIM). The AIM cultures were grown for 3h at 37° C. (900rpm) and then transferred to 20° C. overnight (900rpm) to allow protein expression. The overnight cultures were centrifuged and 500 ul of Cellytic B (Sigma Aldrich) was added to resuspend the cell pellets. The coupled HGO assay (Siehl et al, 2014) is used to generate IC50 values for the HPPD variants of interest.
as §4, §5

[4] = molecular target: HPPD variant AVESA V307 (SEQ ID NO: 35) (Avena sativa, UniProt A0ACD5V6K6, A327R/I340E/L359M/P271N/R214G/V218I/V260A); test: biochemical; format: biochemical
HPPD variant AVESA V307 (SEQ ID NO: 35), sequence (A0ACD5V6K6 entry or part of it R214G/V218I/V260A/P271N/A327R/I340E/L359M): as the sequence (A0ACD5V6K6 entry or part of it V218I/V260A/A327R/I340E/L359M/G411A) above, with R214G, P271N, A411G counted along it
Protocol: as §6, §4, §5

bicyclopyrone
herbicidal damage scoring, Bicyclopyrone (800 g/ha) ([1]; Table 4.4, SEQ ID NO: 122): 60 and 50 and 55 and 65 and 35 and 70 and 40
IC50 [2]: < 390 nM
herbicidal damage scoring, Bicyclopyrone (800 g/ha) (wild-type tobacco plants): 95
IC50 [3]: > 500000 nM

Cn1nnnc1NC(=O)c1ccc(C(F)(F)F)nc1-n1cncn1 [Herbicide D, N-(1-methyltetrazol-5-yl)-2-(1,2,4-triazol-1-yl)-6-(trifluoromethyl)pyridine-3-carboxamide]
IC50 [4]: 262000 nM
herbicidal damage scoring, Herbicide D (2000 g/ha) ([1]; Table 4.4, SEQ ID NO: 122): 80 and 70 and 65 and 75 and 85 and 60
IC50 [2]: 11400 nM
herbicidal damage scoring, Herbicide D (2000 g/ha) (wild-type tobacco plants): 99 and 96 and 97 and 95

COc1ccc(-n2nc(C)cc(C(=O)C3C(=O)CCCC3=O)c2=O)cc1OC [Herbicide C, dioxopyritrione]
IC50 ([4]; AVESA V307, SEQ ID NO: 35, read-out: IC50): < 190 nM
herbicidal damage scoring, Herbicide C 100 g/ha ([1]; Table 3.1, plants expressing SEQ ID 122): 90 and 70 and 95 and 96
herbicidal damage scoring, Herbicide C (200 g/ha) ([1]; Table 4.4, SEQ ID NO: 122): 99 and 95 and 97 and 98
IC50 [2]: 260 nM
herbicidal damage scoring, Herbicide C 100 g/ha (wild-type tobacco plants): 95 and 99 and 96
herbicidal damage scoring, Herbicide C (200 g/ha) (wild-type tobacco plants): 95 and 97 and 98 and 96
IC50 [3]: 890 nM
